These results are taken from the RepoRT retention time repository (doi:10.1186/gb-2013-14-6-r54).

This data set can be described thus: RP, Hichrom Alltima HP C18, 150 × 2.1 mm, 3 µm, 0.2 mL/min, estimated dead time 1.7 min; A: 90% water + 5% acetonitrile + 5% formic acid; B: acetonitrile; gradient (min/%B) 0/0 5/10 25/20 30/25 45/70 65/0. To be noted: stereoisomer not certain.

With `O=C(O)CC(O)(CC(=O)O)C(=O)O` [citric acid], the LC retention time is 3.04 min. To `OCC1OC(Oc2cc3c(O)cc(O)cc3[o+]c2-c2ccc(O)c(O)c2)C(O)C(O)C1O` (configuration not stated) [cyanidin-3-O-glucoside] belongs 14.4 min; to `O=C(C=Cc1ccc(O)cc1)OCC1OC(Oc2cc3c(O)cc(=O)cc-3oc2-c2ccc(O)c(O)c2)C(O)C(O)C1O` (stereo not drawn) [cyanidin-(coumaroyl)-3-O glucoside, trans isomer], 27.6 min; to `OCC1OC(Oc2cc3c(O)cc(O)cc3[o+]c2-c2cc(O)c(O)c(O)c2)C(O)C(O)C1O` (configuration not stated) [delfinidin-3-O-glucoside], 12.5 min.

With `OCC1OC(OC2(CO)OC(CO)C(O)C2O)C(O)C(O)C1O` (configuration not stated) [di-hexose (sucrose)], the LC retention time is 2.52 min.

As to `CC1OC(OC2C(=O)c3c(O)cc(O)cc3OC2c2ccc(O)c(O)c2)C(O)C(O)C1O` (configuration not stated) [dihydroquercetin-O-deoxyhexoside (astilbin)], the LC retention time was 19.8 min. As for `O=C(O)C(O)C(O)C(O)C(O)CO` (configuration not stated) [gluconic acid], the LC retention time is 2.37 min.

On to `NC(CCC(=O)NC(CS)C(=O)NCC(=O)O)C(=O)O` (configuration not stated) [glutathione], for which the LC retention time is 3.04 min.

On to `OCC1OC(O)C(O)C(O)C1O` (configuration not stated) [hexose], for which the LC retention time was 2.4 min. On to `O=C(O)CC(O)C(=O)O` (configuration not stated) [malic acid], for which the LC retention time is 2.72 min.

For the compound `COc1cc(-c2oc3cc(=O)cc(O)c-3cc2OC2OC(CO)C(O)C(O)C2O)cc(OC)c1O` (configuration not stated) [malvidin-3-O-glucoside], the LC retention time is 18 min. Consider `O=C(OC1OC(CO)C(O)C(O)C1O)c1cc(O)c(O)c(O)c1` (configuration not stated) [monogalloyl glucose], for which the LC retention time was 3.53 min.

Regarding `COc1cc(-c2[o+]c3cc(O)cc(O)c3cc2OC2OC(CO)C(O)C(O)C2O)ccc1O` (configuration not stated) [peonidin-3-O-glucoside], the LC retention time was 17.2 min. Consider `COc1cc(-c2[o+]c3cc(O)cc(O)c3cc2OC2OC(CO)C(O)C(O)C2O)cc(O)c1O` (configuration not stated) [petunidin-3-O-glucoside], for which the LC retention time is 15.6 min.

On to `O=C(O)C1OC(Oc2c(-c3ccc(O)c(O)c3)oc3cc(O)cc(O)c3c2=O)C(O)C(O)C1O` (configuration not stated) [quercetin glucuronide], for which the LC retention time was 20 min. Turning to `O=C(O)C(O)C(O)C(=O)O` (configuration not stated) [tartaric acid], the LC retention time was 2.52 min. `NC(Cc1cn(C2OC(CO)C(O)C(O)C2O)c2ccccc12)C(=O)O` (configuration not stated) [tryptophan-N-glucoside]: the LC retention time is 15.8 min.
